Drawing on ChEMBL document CHEMBL5465560, “Selectivity Literature for EUbOPEN Chemogenomic Library” (2024), this text covers % binding, % of control and % of inhibition for six compounds.

Assay [1] addresses T1, Serine/threonine-protein kinase 17A (Homo sapiens) (UniProt Q9UEE5).
T1 sequence (whole entry): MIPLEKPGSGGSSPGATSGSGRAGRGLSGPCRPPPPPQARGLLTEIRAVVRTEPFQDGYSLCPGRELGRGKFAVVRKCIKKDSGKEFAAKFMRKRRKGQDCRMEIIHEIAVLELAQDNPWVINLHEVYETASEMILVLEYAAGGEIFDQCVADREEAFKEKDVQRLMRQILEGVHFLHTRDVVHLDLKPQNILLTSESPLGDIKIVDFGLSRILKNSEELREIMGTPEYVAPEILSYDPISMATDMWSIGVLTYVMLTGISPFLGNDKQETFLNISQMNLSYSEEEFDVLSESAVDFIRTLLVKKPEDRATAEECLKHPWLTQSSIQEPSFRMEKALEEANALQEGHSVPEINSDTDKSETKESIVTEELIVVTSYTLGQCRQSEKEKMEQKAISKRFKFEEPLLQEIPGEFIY
The experiment in a line: Selectivity interaction (KinomeScan (DiscoverX)) EUB0000229b STK17A. The note with it: at 10 µM.

For assay [2], the target named is cGMP-inhibited 3',5'-cyclic phosphodiesterase 3A (Homo sapiens, UniProt Q14432). The assay can be described thus: Selectivity interaction (Safety Panel 44tm (Eurofins)) EUB0000162b PDE3A. To be noted: at 10 µM.
The target of assay [3] is Fibroblast growth factor receptor 4 (Homo sapiens, UniProt P22455). The experiment in a line: Selectivity interaction (Kinase panel (Invitrogen)) EUB0000639a FGFR4. The note with it: at 200 nM.
Assay [4] concerns the target T2, Rhodopsin kinase GRK7 (Homo sapiens) (UniProt Q8WTQ7).
T2 sequence (whole entry): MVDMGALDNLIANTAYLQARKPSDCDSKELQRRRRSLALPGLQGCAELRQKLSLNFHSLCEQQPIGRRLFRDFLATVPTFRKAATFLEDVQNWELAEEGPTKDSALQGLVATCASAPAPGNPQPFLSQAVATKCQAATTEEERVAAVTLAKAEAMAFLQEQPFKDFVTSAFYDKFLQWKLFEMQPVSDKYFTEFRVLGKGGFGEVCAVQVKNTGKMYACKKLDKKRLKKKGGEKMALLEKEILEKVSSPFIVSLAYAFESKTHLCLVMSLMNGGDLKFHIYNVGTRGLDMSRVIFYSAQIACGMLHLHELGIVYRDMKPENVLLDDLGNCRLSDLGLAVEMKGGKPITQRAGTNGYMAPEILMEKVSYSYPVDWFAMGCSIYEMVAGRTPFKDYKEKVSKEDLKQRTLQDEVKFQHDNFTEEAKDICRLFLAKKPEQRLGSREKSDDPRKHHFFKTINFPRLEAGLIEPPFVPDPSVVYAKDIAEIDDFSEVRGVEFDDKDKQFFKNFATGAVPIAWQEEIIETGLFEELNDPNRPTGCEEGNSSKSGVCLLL
The assay can be described thus: Selectivity interaction (KinomeScan (DiscoverX)) EUB0000092b GRK7. To be noted: at 10 µM.

A further assay deals with Activated CDC42 kinase 1 (Homo sapiens, UniProt Q07912). The assay can be described thus: Selectivity interaction (KinomeScan (DiscoverX)) EUB0000092b TNK2. To be noted: at 10 µM.
Assay [5] has as its target T3, Ephrin type-B receptor 2 (Homo sapiens) (UniProt P29323).
T3 sequence (whole entry): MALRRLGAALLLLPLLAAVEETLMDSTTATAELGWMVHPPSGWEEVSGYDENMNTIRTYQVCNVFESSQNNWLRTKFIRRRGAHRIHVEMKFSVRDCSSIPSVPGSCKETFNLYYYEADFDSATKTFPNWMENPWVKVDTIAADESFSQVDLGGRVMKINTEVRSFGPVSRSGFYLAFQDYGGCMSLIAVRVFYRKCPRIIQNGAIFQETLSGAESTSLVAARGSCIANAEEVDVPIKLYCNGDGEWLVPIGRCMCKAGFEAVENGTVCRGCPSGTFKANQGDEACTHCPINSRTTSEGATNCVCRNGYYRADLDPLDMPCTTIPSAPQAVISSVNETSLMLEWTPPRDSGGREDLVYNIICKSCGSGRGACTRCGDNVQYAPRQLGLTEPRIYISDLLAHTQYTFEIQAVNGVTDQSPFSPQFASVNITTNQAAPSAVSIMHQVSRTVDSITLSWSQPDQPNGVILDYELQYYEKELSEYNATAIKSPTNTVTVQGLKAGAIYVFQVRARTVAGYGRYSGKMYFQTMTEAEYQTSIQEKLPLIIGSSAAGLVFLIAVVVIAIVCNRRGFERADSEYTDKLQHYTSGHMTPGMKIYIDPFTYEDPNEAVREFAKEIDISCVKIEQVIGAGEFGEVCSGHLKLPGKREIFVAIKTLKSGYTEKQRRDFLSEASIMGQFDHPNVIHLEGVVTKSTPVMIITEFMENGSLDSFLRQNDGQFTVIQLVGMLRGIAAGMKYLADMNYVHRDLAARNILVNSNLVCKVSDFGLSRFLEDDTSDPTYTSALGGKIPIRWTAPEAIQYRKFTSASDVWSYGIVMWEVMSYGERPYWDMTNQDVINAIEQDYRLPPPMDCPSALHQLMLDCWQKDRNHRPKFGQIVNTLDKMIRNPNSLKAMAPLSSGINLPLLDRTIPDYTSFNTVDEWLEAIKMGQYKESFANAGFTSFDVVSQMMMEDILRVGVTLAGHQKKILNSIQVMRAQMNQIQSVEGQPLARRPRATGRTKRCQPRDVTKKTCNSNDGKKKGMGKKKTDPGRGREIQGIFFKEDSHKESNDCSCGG
The experiment in a line: Selectivity interaction (Upstate Kinase Profiler service (Millipore)) EUB0000056c EPHB2. The note with it: at 1 µM.

For assay [6], the target named is T4, Casein kinase I isoform alpha-like (Homo sapiens) (UniProt Q8N752).
T4 sequence (whole entry): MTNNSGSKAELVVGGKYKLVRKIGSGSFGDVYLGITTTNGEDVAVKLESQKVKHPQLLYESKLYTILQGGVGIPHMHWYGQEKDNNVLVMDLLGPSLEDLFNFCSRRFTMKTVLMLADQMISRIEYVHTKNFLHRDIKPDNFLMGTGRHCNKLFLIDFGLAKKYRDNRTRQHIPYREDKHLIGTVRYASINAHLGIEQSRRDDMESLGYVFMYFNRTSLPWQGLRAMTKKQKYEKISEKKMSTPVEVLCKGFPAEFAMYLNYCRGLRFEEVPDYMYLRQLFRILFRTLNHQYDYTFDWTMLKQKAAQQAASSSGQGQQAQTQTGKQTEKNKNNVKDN
To be noted: at 10 µM.

Fibroblast growth factor receptor 4, sequence (P22455 22-802 limits assumed): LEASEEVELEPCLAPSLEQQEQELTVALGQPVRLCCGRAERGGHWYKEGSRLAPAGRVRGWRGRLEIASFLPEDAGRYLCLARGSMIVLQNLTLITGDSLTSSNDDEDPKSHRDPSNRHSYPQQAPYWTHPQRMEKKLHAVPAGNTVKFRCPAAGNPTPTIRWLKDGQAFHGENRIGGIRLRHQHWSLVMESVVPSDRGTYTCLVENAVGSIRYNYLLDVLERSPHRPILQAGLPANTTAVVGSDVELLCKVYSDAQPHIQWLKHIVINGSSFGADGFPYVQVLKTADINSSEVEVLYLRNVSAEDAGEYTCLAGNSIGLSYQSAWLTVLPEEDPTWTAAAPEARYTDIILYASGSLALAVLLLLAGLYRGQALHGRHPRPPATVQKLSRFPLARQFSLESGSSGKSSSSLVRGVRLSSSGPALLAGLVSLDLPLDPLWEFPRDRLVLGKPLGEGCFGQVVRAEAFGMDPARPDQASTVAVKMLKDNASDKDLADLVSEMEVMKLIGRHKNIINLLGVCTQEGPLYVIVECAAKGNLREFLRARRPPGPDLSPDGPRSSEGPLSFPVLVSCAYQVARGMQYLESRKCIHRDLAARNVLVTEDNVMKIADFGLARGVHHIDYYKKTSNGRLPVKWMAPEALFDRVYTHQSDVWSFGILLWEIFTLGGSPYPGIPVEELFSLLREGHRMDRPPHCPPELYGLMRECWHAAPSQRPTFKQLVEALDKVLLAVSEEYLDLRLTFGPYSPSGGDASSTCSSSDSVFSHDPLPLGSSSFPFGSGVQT
Activated CDC42 kinase 1, sequence (Q07912 whole entry, looked up): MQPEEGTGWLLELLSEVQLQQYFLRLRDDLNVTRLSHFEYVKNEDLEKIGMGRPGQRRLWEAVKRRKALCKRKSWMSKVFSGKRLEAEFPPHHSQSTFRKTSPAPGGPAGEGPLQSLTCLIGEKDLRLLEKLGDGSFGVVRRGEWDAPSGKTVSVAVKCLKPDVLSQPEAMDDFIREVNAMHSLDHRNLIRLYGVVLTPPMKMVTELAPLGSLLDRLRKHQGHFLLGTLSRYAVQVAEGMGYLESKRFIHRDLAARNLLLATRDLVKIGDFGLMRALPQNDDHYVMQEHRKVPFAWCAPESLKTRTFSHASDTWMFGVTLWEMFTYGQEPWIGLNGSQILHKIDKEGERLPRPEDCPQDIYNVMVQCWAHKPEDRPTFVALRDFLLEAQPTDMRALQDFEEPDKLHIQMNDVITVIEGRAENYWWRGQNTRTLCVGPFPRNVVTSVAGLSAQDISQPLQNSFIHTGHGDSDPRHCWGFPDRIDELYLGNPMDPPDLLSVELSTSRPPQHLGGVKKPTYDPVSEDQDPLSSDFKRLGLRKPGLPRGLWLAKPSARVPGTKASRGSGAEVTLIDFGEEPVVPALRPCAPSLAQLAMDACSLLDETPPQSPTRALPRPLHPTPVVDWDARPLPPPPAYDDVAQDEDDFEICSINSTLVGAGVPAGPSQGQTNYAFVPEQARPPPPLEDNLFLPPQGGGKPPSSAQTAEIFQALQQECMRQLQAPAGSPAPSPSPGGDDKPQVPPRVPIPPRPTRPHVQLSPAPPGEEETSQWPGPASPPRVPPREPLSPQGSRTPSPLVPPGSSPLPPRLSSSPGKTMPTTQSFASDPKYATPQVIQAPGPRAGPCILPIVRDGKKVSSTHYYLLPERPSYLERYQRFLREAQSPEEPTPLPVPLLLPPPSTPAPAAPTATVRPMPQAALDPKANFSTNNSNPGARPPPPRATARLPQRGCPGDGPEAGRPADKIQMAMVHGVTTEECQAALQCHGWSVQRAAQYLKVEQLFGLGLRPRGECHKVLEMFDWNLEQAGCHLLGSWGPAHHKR
cGMP-inhibited 3',5'-cyclic phosphodiesterase 3A, sequence (Q14432 whole entry): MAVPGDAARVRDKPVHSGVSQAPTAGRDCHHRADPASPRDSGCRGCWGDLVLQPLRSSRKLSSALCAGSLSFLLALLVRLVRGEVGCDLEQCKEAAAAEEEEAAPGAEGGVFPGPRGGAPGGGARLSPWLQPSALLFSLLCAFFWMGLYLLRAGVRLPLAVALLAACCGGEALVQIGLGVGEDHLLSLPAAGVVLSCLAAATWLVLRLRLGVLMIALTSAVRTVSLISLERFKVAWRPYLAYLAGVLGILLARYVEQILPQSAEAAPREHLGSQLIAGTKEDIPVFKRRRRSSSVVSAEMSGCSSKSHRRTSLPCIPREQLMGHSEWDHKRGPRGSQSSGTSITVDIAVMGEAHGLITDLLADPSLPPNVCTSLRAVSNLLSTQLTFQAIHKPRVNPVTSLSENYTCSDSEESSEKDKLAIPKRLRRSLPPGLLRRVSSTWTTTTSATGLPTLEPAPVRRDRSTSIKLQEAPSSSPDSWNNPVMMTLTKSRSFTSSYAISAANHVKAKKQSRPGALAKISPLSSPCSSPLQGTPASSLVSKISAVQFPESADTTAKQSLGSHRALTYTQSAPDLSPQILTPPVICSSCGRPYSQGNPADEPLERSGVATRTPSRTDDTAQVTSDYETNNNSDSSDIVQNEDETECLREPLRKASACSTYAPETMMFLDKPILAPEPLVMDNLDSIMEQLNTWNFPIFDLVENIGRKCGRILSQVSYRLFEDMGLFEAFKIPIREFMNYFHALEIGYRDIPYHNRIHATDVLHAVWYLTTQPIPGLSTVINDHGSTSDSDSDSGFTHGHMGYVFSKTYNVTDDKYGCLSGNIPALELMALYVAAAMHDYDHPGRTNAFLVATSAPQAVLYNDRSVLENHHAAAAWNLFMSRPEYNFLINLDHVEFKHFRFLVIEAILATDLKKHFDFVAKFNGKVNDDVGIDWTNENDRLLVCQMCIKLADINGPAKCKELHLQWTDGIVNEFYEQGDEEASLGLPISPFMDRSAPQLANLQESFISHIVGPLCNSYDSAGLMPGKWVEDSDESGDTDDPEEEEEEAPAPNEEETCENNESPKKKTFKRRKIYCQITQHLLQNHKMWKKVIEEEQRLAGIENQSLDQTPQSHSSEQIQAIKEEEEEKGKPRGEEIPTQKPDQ

Take `COc1cc(N(C)c2ccnc3ccc(C(F)(F)F)cc23)cc(OC)c1OC`: the % binding in assay [1] came to 92%. In turn, `CN(C)C(=O)Cn1cc(-c2ccc(-c3cncc4ccccc34)cc2)cn1` registered a % of control in assay [2] of 82%. `CC[C@@H]1[C@H](F)C(=O)N[C@@H]1COc1nccc2cc(C(N)=O)c(OC)cc12` [ZIMLOVISERTIB]: the % of inhibition in assay [3] is 3.68%. With `CCC(=O)N1CCN(c2ccc(-n3c(=O)ccc4cnc5ccc(-c6cnc7ccccc7c6)cc5c43)cc2C(F)(F)F)CC1`, the results for the % of control (in assay [4]; at Activated CDC42 kinase 1) were 100% and 51%, respectively. `Cc1ccc(-c2ccc3c(ccc4sc5c(c43)NC[C@@H](C)NC5=O)n2)cn1`: the % of inhibition in assay [5] was -14%. `COCC(=O)NC/C=C/c1ccc2ncnc(Nc3ccc(Oc4ccc(C)nc4)c(C)c3)c2c1` [CP-724714] showed a % of control in assay [6] of 82%.
